Where “and” joins values, the source holds several entries; their conditions need not be identical. Identical values can stand only once. Like-named read-outs stand apart in the source and are kept apart here.
Legend:
SARS-CoV-2 Mpro = settings: cited from earlier work; for IC50: literature value
in vitro [1] = settings: Sprague-Dawley, rat, microsomes
Protocol: Metabolic Stability Assay
(§3) Liver Microsome Stability Assay Protocol
(§4) Human liver microsomes (HLMs, 20 mg/mL), CD-1 mouse liver microsomes (MLMs, 20 mg/mL), Sprague Dawley
(§5) rat liver microsomes (RLMs, 20 mg/mL) were purchased from Xenotech. NADPH was purchased from Sigma-
(§6) Aldrich and prepared in 10 mM stock solutions of distilled H2O (InvitrogenTM UltraPureTM). Verapamil and
(§7) diphenhydramine were both purchased from Sigma-Aldrich and served as positive controls for LM stability assays.
(§8) Test compounds and positive controls were initially dissolved in DMSO to make 10 mM stock solutions. Sample
(§9) solutions were then further diluted in 100% MeCN to 500 μM. Next, the reactions were prepared by mixing human
(§10) or mouse liver microsomes (55 μL) with potassium phosphate buffer (100 mM, 928 μL) in 1.5 mL Eppendorf tubes.
(§11) The test compounds (6.6 μL of 500 μM solution) were subsequently added to the suspensions, and the reaction
(§12) mixtures were incubated at 37 °C for 5 min. Afterward, the liver microsome reactions were initiated with 110 μL
(§13) of 10 mM NADPH and further incubated at 37 °C for the designated time course of the study. This procedure
(§14) provided experiments with a final volume of 1100 μL (0.6% organic solvent content) and a final test compound
(§15) concentration of 3 μM. Aliquots (100 μL) were removed from each reaction mixture in duplicate at 0, 5, 10, 15,
(§16) and 30 min time intervals and quenched with 100 μL of cold internal standard solution (ISTD, 2 μM
(§17) 7-ethoxy-d 5-coumarin in MeOH or MeCN). Quenched aliquots were then centrifuged at 12,500 g for 5-10 min, and
(§18) the resulting supernatants were withdrawn and placed in LC-MS vials to be analyzed by LC-MS/MS (Agilent
(§19) G6460C QQQ MS coupled with an Infinity II 1260 HPLC). Each test compound was run in tandem with positive and
(§20) negative control experiments for quality assurance. Positive control reactions were conducted at a final volume
(§21) of 550 μL for a single run of each time point. Lastly, the negative control experiment was conducted with test
(§22) compounds and liver microsomes in the absence of NADPH (150 μL) and analyzed at the 30 min time point.
(§23) Data Analysis. Each data point was analyzed in triplicate using in-between blank washes to avoid carry over and
(§24) to equilibrate the column for the subsequent runs. Averages of these triplicates for individual compounds at each
(§25) time point were then normalized to the data at 0 min, representing 100% test compound remaining or 0%
(§26) metabolism. Half-lives (t 1/2) were calculated by plotting ln of % test compound remaining versus time and
(§27) performing linear regression to determine slope.
(§28) Instrumentation and LC-MS/MS Method Development
(§29) LC-MS/MS analyses were conducted on an Agilent 1260 Infinity II HPLC equipped with an Agilent G6460 triple
(§30) quadrupole mass spectrometer (Agilent Technologies, USA). Reverse-phase HPLC separation for each compound
(§31) m) column maintained at 40 °C. The mobile phase used during analyses consisted of either MeOH-H2O (0.1% FA)
(§32) or MeCN-H2O (0.1% FA) at a flow rate of 0.5 mL/min. Each method was developed in the presence of the internal
(§33) standard (ISTD), 7-ethoxy-d 5-coumarin. Precursor and product ion detection was performed with Agilent Jet
(§34) Stream electrospray positive ionization (ESI+) in multiple reaction monitoring (MRM) mode. All MRM transitions,
(§35) MS conditions were as follows: dwell time of 100 ms; gas flow of 10 L/min; nebulizer pressure of 45 psi; delta EMV
(§36) of 200 V. Lastly, all acquired data was processed using Agilent 6460 Quantitative Analysis software.

[2] = Liver microsome metabolite identification (LC-HRMS); format: in vitro ADME
Protocol: Figure S15: Stability of 45 in rat liver microsomes (RLM) at 37 °C
Table S17: Stability of 43 in rat liver microsomes (RLM) at 37 °C
Time Response ratio Average RR Rel % ln
Metabolite identification
Procedure for Liver Microsome Metabolite Identification Assay: Test compounds and positive controls were dissolved in 100% DMSO to make 10 mM stock solutions. The 10 mM stock solutions of test and control […]
(1 picture or pasted object on this page, not shown here) […]
compounds were further diluted in potassium phosphate buffer (100 mM, pH 7.4) to 500 μM to ensure that the organic solvent content was < 0.2%. The liver microsome (HLM or MLM) assay was prepared in a 1.5 mL Eppendorf tube with a final volume of […] for duplicate runs. Each reaction contained phosphate buffer (374 μL), liver microsomes (550 μL), and test compound (66 μL of 500 resulting in a final concentration of 30 μM), μM for the […]
test compound. […] Aliquots (100 μL) were removed in […]
(§1) MS analysis was performed using full scan from a mass range of 100-700 m/z at 60k resolution with data dependent MS/MS and MSn programs enabled for the top 5 ions detected for each scan. Compounds are detected based on their MS1 precursor ion accurate mass m/z and identified with matching theoretical and observed accurate mass MS1 ions with interpretation of accurate mass MS/MS spectra from expected […]

in vitro [3] = settings: CD-1, mouse, microsomes
Protocol: Metabolic Stability Assay
as §3, §4, §5, §6, §7, §8, §9, §10, §11, §12, §13, §14, §15, §16, §17, §18, §19, §20, §21, §22, §23, §24, §25, §26, §27, §28, §29, §30, §31, §32, §33, §34, §35, §36

in vitro [4] = settings: human, microsomes
Protocol: Metabolic Stability Assay
as §3, §4, §5, §6, §7, §8, §9, §10, §11, §12, §13, §14, §15, §16, §17, §18, §19, §20, §21, §22, §23, §24, §25, §26, §27, §28, §29, §30, §31, §32, §33, §34, §35, §36

[5] = Pharmacokinetics after single IV and PO administration; format: in vivo, Male Sprague Dawley rats; settings: male, Sprague-Dawley, rat, plasma
Protocol: (§2) To this end, 36 was studied in male Sprague–Dawley rats following a single intravenous dose at 0.25 mg/kg and an oral dose at 0.5 mg/kg (SI, Table S18).
Figure S16: Metabolite identification study of Compound 43 in liver microsomes using liquid chromatography coupled to high resolution mass spectrometry (LC-HRMS). The identification of metabolite Compound 43 M1 […]
as §1
Table S18: Pharmacokinetic data of Compound 36 in Male Sprague Dawley rats following a single intravenous and oral administration (Dose: 0.25 mg/kg, IV and 0.5 mg/kg, PO)
Dose Tmax aC0/Cmax T1/2 CL Vss
Matrix Route AUClast AUCinf (mL/min %F […]
a – Back extrapolated concentration in IV group.
Figure S17: Plasma concentrations-time profiles (mean ± SD) of Compound 36 in Male Sprague Dawley rats following a single intravenous and oral administration (Dose: 0.25 mg/kg, IV and 0.5 mg/kg, PO) […]
(1 picture or pasted object on this page, not shown here)

[6] = Human liver microsome stability assay; settings: for HLM percentage remaining after 30 min: 3 μM, 37 °C; for half-life at 3 µM / remaining at 5 min, 3 µM / remaining at 10 min, 3 µM / remaining at 0.25 h, 3 µM: human, microsomes
Protocol: Metabolic Stability Assay
as §3, §4, §5, §6, §7, §8, §9, §10, §11, §12, §13, §14, §15, §16, §17, §18, §19, §20, §21, §22, §23, §24, §25, §26, §27, §28, §29, §30, §31, §32, §33, §34, §35, §36

in vitro [7] = settings: chlorocebus sabaeus
[8] = Oral dose escalation pharmacokinetics (10 and 100 mg/kg PO); format: in vivo, rat; settings: for AUC(0-inf) / Cmax / Tlast / Tmax / half-life / concentration at 24 h: rat plasma, mean ± SD, n = 3; for concentration at 24 h: read-out: Clast
Protocol: as §2
Table S19. Summary of Pharmacokinetic Parameters (nmol/mL) for Compound 36 in Rat Plasma after a Single Oral
Dose of 36 at 10 mg/kg or 100 mg/kg
Dose Tmax Cmax Tlast Clast AUCinf t1/2
(mg/kg) (h) (nmol/mL) (h) (nmol/mL) (h*nmol/mL) (h)
Results are shown as averages and standard deviations (n = 3).
Figure S18. Average Concentrations (nmol/mL) of Compound 36 in Rat Plasma after a Single Oral Dose of 36 at 10
Left panel: Linear Scale, Right panel: Log Scale. Results are shown as averages and standard deviations (n = 3). […]

[9] = Rat liver microsome stability assay; settings: 37 °C; for remaining at 5 min, 3 µM / remaining at 10 min, 3 µM / remaining at 0.25 h, 3 µM / half-life at 3 µM: Sprague-Dawley, rat, microsomes; for remaining at 5 min, 3 µM / remaining at 10 min, 3 µM / remaining at 0.25 h, 3 µM: RLM Rel % remaining; for half-life at 3 µM: RLM t1/2, 3 μM, unit inferred
Protocol: Metabolic Stability Assay
as §3, §4, §5, §6, §7, §8, §9, §10, §11, §12, §13, §14, §15, §16, §17, §18, §19, §20, §21, §22, §23, §24, §25, §26, §27, §28, §29, §30, §31, §32, §33, §34, §35, §36

SARS-CoV-2 Mpro (3CLpro) = SARS-CoV-2 Mpro (3CLpro) (Severe acute respiratory syndrome coronavirus 2, UniProt P0DTD1); test: SARS-CoV-2 recombinant protease enzymatic assay (FRET); format: biochemical; settings: for IC50: recombinant Mpro, FRET peptide substrate
[10] = Mouse liver microsome stability assay; settings: for MLM percentage remaining after 30 min: 3 μM, 37 °C; for half-life at 3 µM / remaining at 5 min, 3 µM / remaining at 10 min, 3 µM / remaining at 0.25 h, 3 µM: CD-1, mouse, microsomes
Protocol: Metabolic Stability Assay
as §3, §4, §5, §6, §7, §8, §9, §10, §11, §12, §13, §14, §15, §16, §17, §18, §19, §20, §21, §22, §23, §24, §25, §26, §27, §28, §29, §30, §31, §32, §33, §34, §35, §36

[11] = test system: SARS-CoV-2-Nluc reporter virus; test: microbe, parasite or virus in culture; format: cell-based; settings: for EC50: Severe acute respiratory syndrome coronavirus 2, VeroE6/TMPRSS2 cells, parentheses denote 95% confidence intervals
CYP3A = test system: CYP3A; set-up: method as in PMID 37171749; settings: cited from earlier work

Structure (SMILES): N#Cc1ccccc1-c1cc(-c2cccc(Cl)c2)c(=O)n(-c2cccnc2)c1 [Compound 2]
- IC50 (SARS-CoV-2 Mpro): 9990 nM
- improvement in potency over 1 (SARS-CoV-2 Mpro; relative to perampanel 1): 10 fold

Structure (SMILES): Cn1cc(-c2cc(-c3cc(Cl)c(F)c(OCc4ccccc4Cl)c3)c(=O)n(-c3cccnc3)c2)c(=O)[nH]c1=O [Compound 4]
- half-life at 3 µM (in vitro [1]): 4.8 min
- remaining at 5 min, 3 µM (in vitro [1]): 63.6%
- remaining at 10 min, 3 µM (in vitro [1]): 26.6%
- remaining at 0.25 h, 3 µM (in vitro [1]): 17.4%
- major microsomal metabolite / metabolic route [2]: loss of the ortho-chlorobenzyl moiety
- half-life at 3 µM (in vitro [3]): 2.4 min
- remaining at 5 min, 3 µM (in vitro [3]): 9.41%
- remaining at 10 min, 3 µM (in vitro [3]): 5.25%
- remaining at 0.25 h, 3 µM (in vitro [3]): 2.96%
- remaining at 5 min, 3 µM (in vitro [4]): 46.1%
- remaining at 10 min, 3 µM (in vitro [4]): 22.7%
- remaining at 0.25 h, 3 µM (in vitro [4]): 16.3%
- half-life at 3 µM (in vitro [4]; HLM t1/2): 7.2 min

Structure (SMILES): O=c1[nH]cccc1-c1cn(-c2cc(Cl)cc(OCCC(F)(F)F)c2)c(=O)n(-c2cccnc2)c1=O [Compound 36]
- bioavailability ([5]; PO 0.5 mg/kg vs IV 0.25 mg/kg, read-out: %F (oral bioavailability)): 40.6% and 41%
- AUC(0-inf) ([5]; IV 0.25 mg/kg): 1680 ng·h/mL
- AUC(0-t) ([5]; IV 0.25 mg/kg): 1610 ng·h/mL
- clearance ([5]; IV 0.25 mg/kg): 2.49 mL/min/kg
- half-life ([5]; IV 0.25 mg/kg): 103 min
- C0 ([5]; IV 0.25 mg/kg, read-out: C0 (back extrapolated concentration)): 1330 ng/mL
- Vd ([5]; IV 0.25 mg/kg, read-out: Vss): 0.33 L/kg
- AUC(0-inf) ([5]; PO 0.5 mg/kg): 1690 ng·h/mL
- AUC(0-t) ([5]; PO 0.5 mg/kg): 1310 ng·h/mL
- Cmax ([5]; PO 0.5 mg/kg): 285 ng/mL
- Tmax ([5]; PO 0.5 mg/kg): 100 min
- HLM percentage remaining after 30 min [6]: 91.7% and 91.71%
- half-life at 3 µM [6]: > 30 min
- remaining at 5 min, 3 µM [6]: 98.2%
- remaining at 10 min, 3 µM [6]: 97.7%
- remaining at 0.25 h, 3 µM [6]: 98.2%
- CC50 (in vitro [7]): > 100000 nM
- increase in AUC on 10-fold increase in dose ([8]; 10 mg/kg vs 100 mg/kg PO): 2 fold
- AUC(0-inf) ([8]; PO 10 mg/kg): 23.2 ± 2.18 µM·h
- Cmax ([8]; PO 10 mg/kg): 2610 ± 476 nM
- Tlast ([8]; PO 10 mg/kg): 24.0 ± 0.00 h
- Tmax ([8]; PO 10 mg/kg): 100 ± 34.6 min
- half-life ([8]; PO 10 mg/kg): 161 ± 18.6 min
- concentration at 24 h ([8]; PO 10 mg/kg): 12.6 ± 6.27 nM
- AUC(0-inf) ([8]; PO 100 mg/kg): 49.9 ± 4.53 µM·h
- Cmax ([8]; PO 100 mg/kg): 4130 ± 161 nM
- Tlast ([8]; PO 100 mg/kg): 24.0 ± 0.00 h
- Tmax ([8]; PO 100 mg/kg): 140 ± 91.8 min
- half-life ([8]; PO 100 mg/kg): 224 ± 64.8 min
- concentration at 24 h ([8]; PO 100 mg/kg): 114 ± 105 nM
- RLM percentage remaining after 30 min ([9]; 3 μM): 86.4% and 86.41%
- remaining at 5 min, 3 µM ([9]; 5 min): 95.4%
- remaining at 10 min, 3 µM ([9]; 10 min): 90.9%
- remaining at 0.25 h, 3 µM ([9]; 15 min): 88.8%
- half-life at 3 µM [9]: > 30 min
- IC50 (SARS-CoV-2 Mpro (3CLpro)): 55 nM
- MLM percentage remaining after 30 min [10]: 73.3% and 73.26%
- half-life at 3 µM [10]: > 30 min
- remaining at 5 min, 3 µM [10]: 93.9%
- remaining at 10 min, 3 µM [10]: 90.1%
- remaining at 0.25 h, 3 µM [10]: 83.8%
- EC50 [11]: 1350 nM

Structure (SMILES): O=c1[nH]cccc1-c1cn(-c2cc(Cl)cc(OCc3ccccc3Cl)c2)c(=O)n(-c2cccnc2)c1=O [Compound 43]
- HLM percentage remaining after 30 min [6]: 48% and 47.72%
- half-life at 3 µM [6]: 27.8 min
- remaining at 5 min, 3 µM [6]: 91.6%
- remaining at 10 min, 3 µM [6]: 76.9%
- remaining at 0.25 h, 3 µM [6]: 70.7%
- CC50 (in vitro [7]): > 100000 nM
- major microsomal metabolite / metabolic route ([2]; liver microsomes, LC-HRMS): ether cleavage
- RLM percentage remaining after 30 min ([9]; 3 μM): 26.6% and 26.55% and 30.88%
- RLM t1/2 ([9]; 3 μM, unit not given): 19.8 min
- RLM Rel % remaining ([9]; 5 min): 80.16%
- RLM Rel % remaining ([9]; 10 min): 63.43%
- RLM Rel % remaining ([9]; 15 min): 57.78%
- remaining at 5 min, 3 µM ([9]; 5 min): 71.1%
- remaining at 10 min, 3 µM ([9]; 10 min): 55.3%
- remaining at 0.25 h, 3 µM ([9]; 15 min): 43.5%
- half-life at 3 µM [9]: 16.1 min
- IC50 range in words (SARS-CoV-2 Mpro (3CLpro)): single-digit nanomolar range
- IC50 (SARS-CoV-2 Mpro (3CLpro)): 8.6 nM
- MLM percentage remaining after 30 min [10]: 4.0% and 3.96%
- half-life at 3 µM [10]: 3 min
- remaining at 5 min, 3 µM [10]: 22.8%
- remaining at 10 min, 3 µM [10]: 10.4%
- remaining at 0.25 h, 3 µM [10]: 7.53%
- EC50 range in words [11]: sub-micromolar
- EC50 [11]: 130 nM

Structure (SMILES): O=c1[nH]cccc1-c1cn(-c2cc(Cl)cc(OCc3ncsc3C(F)(F)F)c2)c(=O)n(-c2cccnc2)c1=O [Compound 45]
- HLM percentage remaining after 30 min [6]: 19.5% and 19.47%
- half-life at 3 µM [6]: 13 min
- remaining at 5 min, 3 µM [6]: 84.6%
- remaining at 10 min, 3 µM [6]: 49.9%
- remaining at 0.25 h, 3 µM [6]: 48.5%
- CC50 (in vitro [7]): > 100000 nM
- RLM percentage remaining after 30 min ([9]; 3 μM): 30.9%
- half-life at 3 µM [9]: 18 min
- IC50 (SARS-CoV-2 Mpro (3CLpro)): 12 nM
- MLM percentage remaining after 30 min [10]: 14.4% and 14.41%
- half-life at 3 µM [10]: 11 min
- remaining at 5 min, 3 µM [10]: 54.6%
- remaining at 10 min, 3 µM [10]: 43%
- remaining at 0.25 h, 3 µM [10]: 20.6%
- EC50 range in words [11]: sub-micromolar
- EC50 [11]: 820 nM

Structure (SMILES): Cn1cnc(Cn2c(=O)[nH]/c(=N\c3cc4cn(C)nc4cc3Cl)n(Cc3cc(F)c(F)cc3F)c2=O)n1 [Compound S-217622, ensitrelvir, reference compound]
- CYP3A inhibition (CYP3A): strong CYP3A inhibitor
- EC50 [11]: 230 nM

Structure (SMILES): N#Cc1ccccc1-c1cc(-c2ccccn2)cn(-c2ccccc2)c1=O [Perampanel, perampanel]
- IC50 (SARS-CoV-2 Mpro): 100000 to 200000 nM
